Values after ≈ are worked out from the molar mass of the structure shown.

Series [1] is described as follows: Protein binding in mouse plasma at 1 uM after 6 hrs by equilibrium dialysis method. As to conditions: read-out: PPB (converted). Type of series: ADME, cell-free.
The next series deals with Cytochrome P450 3A4 (Homo sapiens, UniProt P08684). Kind of series: Inhibition of CYP3A4 in human liver microsomes using midazolam as substrate after 15 mins by LC-MS/MS analysis. Type of series: ADME.
Sequence of Cytochrome P450 3A4 (P08684 whole entry): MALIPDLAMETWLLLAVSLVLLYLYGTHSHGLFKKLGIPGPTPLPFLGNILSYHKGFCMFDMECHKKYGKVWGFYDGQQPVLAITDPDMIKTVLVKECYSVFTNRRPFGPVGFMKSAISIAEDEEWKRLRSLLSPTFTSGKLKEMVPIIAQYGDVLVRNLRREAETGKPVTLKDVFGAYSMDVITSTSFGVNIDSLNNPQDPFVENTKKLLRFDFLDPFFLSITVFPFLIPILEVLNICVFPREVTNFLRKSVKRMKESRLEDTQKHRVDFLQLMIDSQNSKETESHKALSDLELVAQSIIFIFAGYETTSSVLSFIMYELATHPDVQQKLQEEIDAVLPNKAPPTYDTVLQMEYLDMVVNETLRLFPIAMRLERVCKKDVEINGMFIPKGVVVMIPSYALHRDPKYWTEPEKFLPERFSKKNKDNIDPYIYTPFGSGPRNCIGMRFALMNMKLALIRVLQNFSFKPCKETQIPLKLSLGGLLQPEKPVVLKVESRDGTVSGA
The target of a further series is T1, Cytochrome P450 2C8 (Homo sapiens, UniProt P10632).
T1 sequence (P10632 whole entry): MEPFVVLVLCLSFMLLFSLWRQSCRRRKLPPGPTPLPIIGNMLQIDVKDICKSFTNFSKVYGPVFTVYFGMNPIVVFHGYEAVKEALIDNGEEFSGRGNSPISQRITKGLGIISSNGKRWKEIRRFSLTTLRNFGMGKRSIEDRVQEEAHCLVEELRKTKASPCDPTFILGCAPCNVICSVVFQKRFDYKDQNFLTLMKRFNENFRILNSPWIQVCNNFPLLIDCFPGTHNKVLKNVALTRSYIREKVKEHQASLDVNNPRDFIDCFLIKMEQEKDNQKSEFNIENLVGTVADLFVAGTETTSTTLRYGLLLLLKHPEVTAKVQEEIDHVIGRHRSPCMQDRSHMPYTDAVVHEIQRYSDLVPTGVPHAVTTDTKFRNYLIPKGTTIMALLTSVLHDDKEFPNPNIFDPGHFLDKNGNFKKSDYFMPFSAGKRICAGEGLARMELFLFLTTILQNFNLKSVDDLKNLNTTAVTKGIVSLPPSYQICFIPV
Kind of series: Inhibition of CYP2C8 in human liver microsomes using paclitaxel as substrate after 15 mins by LC-MS/MS analysis. In kind it is ADME.

In series [2] the target is Voltage-gated inwardly rectifying potassium channel KCNH2 (Homo sapiens, UniProt Q12809). Kind of series: Inhibition of [3H]-dofetilide binding to human ERG expressed in HEK293 cells. In kind it is cell-based.
Sequence of Voltage-gated inwardly rectifying potassium channel KCNH2 (Q12809 whole entry): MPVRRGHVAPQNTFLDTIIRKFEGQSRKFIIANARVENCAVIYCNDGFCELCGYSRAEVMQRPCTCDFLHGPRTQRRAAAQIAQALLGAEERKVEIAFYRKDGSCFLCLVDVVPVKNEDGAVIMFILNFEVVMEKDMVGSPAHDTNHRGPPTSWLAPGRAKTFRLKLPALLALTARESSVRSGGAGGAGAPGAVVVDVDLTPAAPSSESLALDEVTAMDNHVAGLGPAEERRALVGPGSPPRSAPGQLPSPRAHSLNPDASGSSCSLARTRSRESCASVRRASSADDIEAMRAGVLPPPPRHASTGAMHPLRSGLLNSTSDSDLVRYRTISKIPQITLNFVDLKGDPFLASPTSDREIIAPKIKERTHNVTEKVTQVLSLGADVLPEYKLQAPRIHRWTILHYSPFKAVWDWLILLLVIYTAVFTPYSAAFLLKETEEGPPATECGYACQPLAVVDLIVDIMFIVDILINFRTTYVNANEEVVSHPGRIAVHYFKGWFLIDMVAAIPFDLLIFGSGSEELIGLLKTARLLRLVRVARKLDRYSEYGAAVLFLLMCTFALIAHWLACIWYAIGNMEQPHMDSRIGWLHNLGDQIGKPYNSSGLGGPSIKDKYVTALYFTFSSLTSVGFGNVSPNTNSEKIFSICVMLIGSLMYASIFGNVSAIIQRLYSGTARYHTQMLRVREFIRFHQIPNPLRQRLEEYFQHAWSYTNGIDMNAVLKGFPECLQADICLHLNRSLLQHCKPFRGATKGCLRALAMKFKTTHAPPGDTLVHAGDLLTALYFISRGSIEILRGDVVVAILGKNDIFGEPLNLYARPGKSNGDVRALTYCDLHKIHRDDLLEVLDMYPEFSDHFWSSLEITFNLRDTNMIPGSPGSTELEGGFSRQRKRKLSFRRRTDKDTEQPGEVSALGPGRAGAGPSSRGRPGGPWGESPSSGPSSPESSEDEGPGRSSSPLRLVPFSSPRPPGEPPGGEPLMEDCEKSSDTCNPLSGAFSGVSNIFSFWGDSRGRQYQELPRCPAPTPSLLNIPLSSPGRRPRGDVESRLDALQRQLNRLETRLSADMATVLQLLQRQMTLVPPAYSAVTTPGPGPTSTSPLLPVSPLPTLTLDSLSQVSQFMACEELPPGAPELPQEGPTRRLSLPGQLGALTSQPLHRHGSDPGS
The next series deals with T2, Cytochrome P450 1A2 (Homo sapiens, UniProt P05177).
T2 sequence (P05177 whole entry): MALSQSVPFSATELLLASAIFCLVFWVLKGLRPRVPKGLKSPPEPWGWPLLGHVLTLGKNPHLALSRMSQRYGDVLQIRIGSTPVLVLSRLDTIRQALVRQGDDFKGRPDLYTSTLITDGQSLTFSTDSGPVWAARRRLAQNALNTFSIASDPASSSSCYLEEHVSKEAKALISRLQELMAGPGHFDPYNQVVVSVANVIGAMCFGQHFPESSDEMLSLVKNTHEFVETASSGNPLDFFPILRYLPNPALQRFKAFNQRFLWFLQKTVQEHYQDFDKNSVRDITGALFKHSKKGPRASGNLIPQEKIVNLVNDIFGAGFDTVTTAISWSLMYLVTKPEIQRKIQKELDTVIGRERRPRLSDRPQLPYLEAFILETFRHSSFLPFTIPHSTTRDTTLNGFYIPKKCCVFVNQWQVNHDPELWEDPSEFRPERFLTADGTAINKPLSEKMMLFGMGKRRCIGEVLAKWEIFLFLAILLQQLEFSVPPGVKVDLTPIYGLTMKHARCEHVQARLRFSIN
Kind of series: Inhibition of CYP1A2 in human liver microsomes using phenacetin as substrate after 15 mins by LC-MS/MS analysis. Type of series: ADME.

Series [3] in a line: Solubility of compound in phosphate buffer at pH 7 after 3 days. In kind it is physicochemical.
Another series addresses Cytochrome P450 2C9 (Homo sapiens, UniProt P11712). Kind of series: Inhibition of CYP2C9 in human liver microsomes using diclofenac as substrate after 15 mins by LC-MS/MS analysis. Type of series: ADME. A general note: Liver microsomes are a subcellular fraction often used to study metabolism.
The target in a further series is Cytochrome P450 2C19 (Homo sapiens, UniProt P33261). Kind of series: Inhibition of CYP2C19 in human liver microsomes using S-mephenytoin as substrate after 15 mins by LC-MS/MS analysis. Type of series: ADME.
Sequence of Cytochrome P450 2C19 (P33261 whole entry): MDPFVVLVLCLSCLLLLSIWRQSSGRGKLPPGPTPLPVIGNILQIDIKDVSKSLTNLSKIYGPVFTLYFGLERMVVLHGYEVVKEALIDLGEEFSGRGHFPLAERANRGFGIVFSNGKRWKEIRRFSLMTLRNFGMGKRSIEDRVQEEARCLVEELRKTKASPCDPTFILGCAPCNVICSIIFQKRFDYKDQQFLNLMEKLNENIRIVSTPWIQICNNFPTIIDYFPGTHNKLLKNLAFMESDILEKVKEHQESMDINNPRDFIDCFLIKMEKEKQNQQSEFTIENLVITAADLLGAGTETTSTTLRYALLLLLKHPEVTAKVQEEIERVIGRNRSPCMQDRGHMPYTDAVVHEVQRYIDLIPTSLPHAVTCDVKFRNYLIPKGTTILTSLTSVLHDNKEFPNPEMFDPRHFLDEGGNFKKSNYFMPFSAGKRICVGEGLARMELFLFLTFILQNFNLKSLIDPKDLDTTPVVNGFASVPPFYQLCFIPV
Series [4] is described as follows: Protein binding in human plasma at 1 uM after 6 hrs by equilibrium dialysis method. In kind it is ADME, cell-free. As to conditions: read-out: PPB (converted). A general note: Equilibrium dialysis compares concentrations on both sides of a semipermeable membrane.
Series [5] in a line: Protein binding in rat plasma at 1 uM after 6 hrs by equilibrium dialysis method. Type of series: ADME, cell-free. The conditions noted are these: read-out: PPB (converted).
The next series has as its target Cytochrome P450 2D6 (Homo sapiens, UniProt P10635). Kind of series: Inhibition of CYP2D6 in human liver microsomes using dextromethorphan as substrate after 15 mins by LC-MS/MS analysis. In kind it is ADME.
Series [6] can be described thus: Solubility of compound in phosphate buffer at pH 2 after 3 days. Type of series: physicochemical.
Series [7] in a line: Oral bioavailability in Sprague-Dawley rat at 5 mg/kg by LC-MS/MS analysis. Type of series: ADME, organism-based. The conditions noted are these: in vivo.
The nature of series [8]: Oral bioavailability in beagle dog at 3 mg/kg by LC-MS/MS analysis. In kind it is ADME, organism-based, Canis lupus familiaris. As to conditions: in vivo.
Series [9] is described as follows: Half life in Sprague-Dawley rat at 1 mg/kg, iv by LC-MS/MS analysis. As to conditions: in vivo. In kind it is ADME, organism-based.
The nature of series [10]: Clearance in beagle dog at 1 mg/kg, iv or 3 mg/kg, po by LC-MS/MS analysis. In kind it is ADME, organism-based, Canis lupus familiaris. As to conditions: in vivo.
Series [11] is described as follows: Volume of distribution at steady state in Sprague-Dawley rat at 1 mg/kg, iv or 5 mg/kg, po by LC-MS/MS analysis. As to conditions: in vivo, read-out: Vdss. In kind it is ADME, organism-based.
In series [12] the test system is Rattus norvegicus. Kind of series: Inhibition of Bz-ATP-induced IL-1beta release in sc dosed Sprague-Dawley rat hippocampus preincubated for 1 hr followed by Bz-ATP challenge measured after 2 hrs by microdialysis method. Type of series: functional, organism-based.
Series [13] is described as follows: Protein binding in rat brain at 5 uM after 5 hrs by equilibrium dialysis method. Type of series: ADME, tissue-based. As to conditions: read-out: PB (converted).
Series [14] is described as follows: Clearance in Sprague-Dawley rat at 1 mg/kg, iv or 5 mg/kg, po by LC-MS/MS analysis. Type of series: ADME, organism-based. As to conditions: in vivo.
Series [15] is described as follows: Half life in beagle dog at 1 mg/kg, iv by LC-MS/MS analysis. In kind it is ADME, organism-based, Canis lupus familiaris. As to conditions: in vivo.
A short description of series [16]: Volume of distribution at steady state in beagle dog at 1 mg/kg, iv or 3 mg/kg, po by LC-MS/MS analysis. Type of series: ADME, organism-based, Canis lupus familiaris. The conditions noted are these: in vivo, read-out: Vdss.
The test system of series [17] is Rattus norvegicus. Kind of series: Ex vivo receptor occupancy at P2X7 in sc dosed Sprague-Dawley rat brain after 60 mins by autoradiography. In kind it is functional.

Sequence of Cytochrome P450 2C9 (P11712 whole entry): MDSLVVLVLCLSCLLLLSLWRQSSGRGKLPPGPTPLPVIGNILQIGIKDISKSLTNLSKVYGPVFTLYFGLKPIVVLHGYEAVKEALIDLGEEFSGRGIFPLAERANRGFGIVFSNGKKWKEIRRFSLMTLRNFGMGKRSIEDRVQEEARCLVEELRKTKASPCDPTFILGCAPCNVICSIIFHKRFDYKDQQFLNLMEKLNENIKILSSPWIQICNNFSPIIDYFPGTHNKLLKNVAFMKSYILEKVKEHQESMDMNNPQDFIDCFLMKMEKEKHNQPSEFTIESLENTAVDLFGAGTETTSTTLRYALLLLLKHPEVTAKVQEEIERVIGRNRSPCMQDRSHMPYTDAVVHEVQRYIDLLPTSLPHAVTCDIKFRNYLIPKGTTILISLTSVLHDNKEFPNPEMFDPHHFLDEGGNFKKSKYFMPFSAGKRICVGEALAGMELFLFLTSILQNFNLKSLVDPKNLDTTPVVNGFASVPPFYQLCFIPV
Sequence of Cytochrome P450 2D6 (P10635 whole entry): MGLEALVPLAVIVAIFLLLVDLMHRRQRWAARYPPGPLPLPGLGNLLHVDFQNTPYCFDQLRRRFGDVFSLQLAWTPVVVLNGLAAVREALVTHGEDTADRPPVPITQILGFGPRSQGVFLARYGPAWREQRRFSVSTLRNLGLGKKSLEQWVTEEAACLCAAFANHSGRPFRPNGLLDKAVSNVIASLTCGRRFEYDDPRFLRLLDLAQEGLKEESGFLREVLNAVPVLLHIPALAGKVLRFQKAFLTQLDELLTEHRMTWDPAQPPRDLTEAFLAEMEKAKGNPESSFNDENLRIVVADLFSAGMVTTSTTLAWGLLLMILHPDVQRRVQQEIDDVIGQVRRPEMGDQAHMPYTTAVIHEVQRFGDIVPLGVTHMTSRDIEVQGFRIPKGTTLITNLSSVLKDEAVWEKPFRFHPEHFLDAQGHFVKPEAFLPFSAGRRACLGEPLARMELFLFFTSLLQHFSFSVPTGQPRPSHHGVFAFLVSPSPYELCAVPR

As a reminder, the IC50 is the concentration at which inhibition is half-maximal. Low values mean higher potency, high ones lower potency. For orientation: solubility means the concentration that dissolves in the medium under given conditions. Low readings indicate a poorly soluble substance, high ones a readily soluble substance. For the compound `C[C@@H]1c2nnn(-c3cc(F)ccn3)c2CCN1C(=O)c1cccc(C(F)(F)F)c1Cl`, the values for the fraction unbound at 6 h, 1 µM in [1], in [4] and in [5] were 0.042, 0.024 and 0.052, respectively. Moreover, the 50% inhibitory concentration (IC50) at Cytochrome P450 3A4 was over 10 µM; against Cytochrome P450 2C8, over 10 µM; in series [2], over 10 µM; against Cytochrome P450 1A2 it was over 10 µM; at Cytochrome P450 2C9 it was 2.8 µM; against Cytochrome P450 2C19 it was 2.1 µM. The IC50 against Cytochrome P450 2D6 is over 10 µM. In addition, the solubility at 72 h was found to be 2.1 µM (≈ 0.924 µg/mL) in series [3] and 4.8 µM (≈ 2.11 µg/mL) in [6].

A word on the bioavailability: it is the share of a dose that reaches the circulation, judged against a reference dose that is usually intravenous. As usually defined, the half-life is how long it takes for the measured level to halve. Lower therefore signals rapid decline. As a reminder, the ED50 is the dose at which the effect has come halfway, by size or by number of responders. The low end stands for an effect at a small dose, the high end for a need for a large dose. As for `C[C@@H]1c2nnn(-c3cnccn3)c2CCN1C(=O)c1cccc(C(F)(F)F)c1Cl`, the fraction unbound at 6 h, 1 µM in series [1] is 0.053; in series [4], 0.084; in series [5], 0.063. Further, the figures for the bioavailability in series [7] and in series [8] were 77% and 65%, respectively. For the same compound, the half-life was 1.5 h in series [9] and 2.4 h in series [15]. For the same compound, the clearance in series [10] was found to be 33 mL/min/kg; in [14] it was 46 mL/min/kg. Moreover, the IC50 was 2.3 µM on Cytochrome P450 3A4; over 10 µM against Cytochrome P450 2C8; over 10 µM in series [2]; over 10 µM on Cytochrome P450 1A2; over 10 µM against Cytochrome P450 2C9; 4.3 µM against Cytochrome P450 2C19. The concentration for half-maximal inhibition (IC50) on Cytochrome P450 2D6 was over 10 µM. The solubility at 72 h is 94.4 µM (≈ 39.9 µg/mL) in [3] and 48.2 µM (≈ 20.4 µg/mL) in series [6]. Also, the Vd in [11] worked out at 3 L/kg; in series [16], 3.3 L/kg. The inhibition entry in the series on Rattus norvegicus [12] is “Dose-dependent effect”. Also, the fraction unbound at 5 h, 5 µM in series [13] was 0.05. For the same compound, in the series on Rattus norvegicus [17], the Occ result was “Dose-dependent effect”. The ED50 in the series on Rattus norvegicus [17] (1 h) stood at 0.3 mg/kg.

The values above are taken from ChEMBL document CHEMBL4052642, “4-Methyl-6,7-dihydro-4H-triazolo[4,5-c]pyridine-Based P2X7 Receptor Antagonists: Optimization of Pharmacokinetic Properties Leading to the Identification of a Clinical Candidate” (J Med Chem, 2017).
